According to patent US20250034159A1, “INHIBITORS OF EPIDERMAL GROWTH FACTOR RECEPTOR” (ORIC Pharmaceuticals, Inc., priority 2021, published 2025):

Key:
Ba/F3_EGFR WT cells = test: Biological Activity Assay D: BaF3 cell proliferation assay, EGFR wild-type (BaF3 WT); type: cell-based; details: Ba/F3 EGFR; Ba/F3_EGFR WT cells, ~72 hours, CellTiter-Glo; read-out: BaF3 WT IC50
BaF3_EGFR LR/CS cells = test: Biological Activity Assay D: BaF3 cell proliferation assay, EGFR L858R/C797S mutant (BaF3 LR/CS); type: cell-based; details: Ba/F3 EGFR; BaF3_EGFR LR/CS cells, ~72 hours, CellTiter-Glo; read-out: BaF3 LR/CS IC50
BaF3_EGFR d19/CS cells = test: Biological Activity Assay D: BaF3 cell proliferation assay, EGFR exon 19 deletion/C797S (BaF3 d19/CS); type: cell-based; details: Ba/F3 EGFR; BaF3_EGFR d19/CS cells, ~72 hours, CellTiter-Glo; read-out: BaF3 d19/CS IC50
[1] = biological target: recombinant human EGFR exon 19 deletion/C797S double mutant protein (Homo sapiens (Human), UniProt P00533, C797S/DEL746-750); test: Biological Activity Assay C: biochemical assay against EGFR exon 19 deletion/C797S protein (EGFR d19/CS)
Outline: (§1)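 IC50 values were fitted with a 4-parameter model to reaction slopes taken from 90 kinetic reads spaced 120 s apart. The Phosphosens sensor/ATP working solution was 40 uM/4 mM, and compound was dosed as 16-point dilutions at 2.5% final DMSO.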

[2] = biological target: recombinant human EGFR L858R/C797S double mutant protein (Homo sapiens (Human), UniProt P00533, C797S/L858R); test: Biological Activity Assay B: biochemical assay against EGFR L858R/C797S protein (EGFR LR/CS)
Outline: as §1

Chain of recombinant human EGFR exon 19 deletion/C797S double mutant protein (P00533 other isoform, or with tags, fused parts or gaps C797S/del 1-668/del 746-750 limits assumed): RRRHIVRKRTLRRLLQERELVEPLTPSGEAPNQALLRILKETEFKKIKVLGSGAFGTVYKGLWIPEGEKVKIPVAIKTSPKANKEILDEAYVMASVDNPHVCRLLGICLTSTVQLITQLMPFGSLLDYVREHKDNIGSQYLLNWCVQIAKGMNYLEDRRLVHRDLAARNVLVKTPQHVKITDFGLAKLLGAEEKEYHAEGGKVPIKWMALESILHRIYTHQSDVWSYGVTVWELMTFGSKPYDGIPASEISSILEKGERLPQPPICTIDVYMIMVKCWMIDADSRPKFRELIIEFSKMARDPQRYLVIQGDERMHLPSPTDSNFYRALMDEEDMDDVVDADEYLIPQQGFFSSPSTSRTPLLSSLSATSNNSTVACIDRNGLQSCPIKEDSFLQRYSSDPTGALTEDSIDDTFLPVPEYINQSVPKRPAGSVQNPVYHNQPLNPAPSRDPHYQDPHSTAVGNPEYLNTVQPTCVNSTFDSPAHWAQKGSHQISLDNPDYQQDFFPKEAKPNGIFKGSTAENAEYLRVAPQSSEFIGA
Chain of recombinant human EGFR L858R/C797S double mutant protein (P00533 25-1210 C797S/L858R): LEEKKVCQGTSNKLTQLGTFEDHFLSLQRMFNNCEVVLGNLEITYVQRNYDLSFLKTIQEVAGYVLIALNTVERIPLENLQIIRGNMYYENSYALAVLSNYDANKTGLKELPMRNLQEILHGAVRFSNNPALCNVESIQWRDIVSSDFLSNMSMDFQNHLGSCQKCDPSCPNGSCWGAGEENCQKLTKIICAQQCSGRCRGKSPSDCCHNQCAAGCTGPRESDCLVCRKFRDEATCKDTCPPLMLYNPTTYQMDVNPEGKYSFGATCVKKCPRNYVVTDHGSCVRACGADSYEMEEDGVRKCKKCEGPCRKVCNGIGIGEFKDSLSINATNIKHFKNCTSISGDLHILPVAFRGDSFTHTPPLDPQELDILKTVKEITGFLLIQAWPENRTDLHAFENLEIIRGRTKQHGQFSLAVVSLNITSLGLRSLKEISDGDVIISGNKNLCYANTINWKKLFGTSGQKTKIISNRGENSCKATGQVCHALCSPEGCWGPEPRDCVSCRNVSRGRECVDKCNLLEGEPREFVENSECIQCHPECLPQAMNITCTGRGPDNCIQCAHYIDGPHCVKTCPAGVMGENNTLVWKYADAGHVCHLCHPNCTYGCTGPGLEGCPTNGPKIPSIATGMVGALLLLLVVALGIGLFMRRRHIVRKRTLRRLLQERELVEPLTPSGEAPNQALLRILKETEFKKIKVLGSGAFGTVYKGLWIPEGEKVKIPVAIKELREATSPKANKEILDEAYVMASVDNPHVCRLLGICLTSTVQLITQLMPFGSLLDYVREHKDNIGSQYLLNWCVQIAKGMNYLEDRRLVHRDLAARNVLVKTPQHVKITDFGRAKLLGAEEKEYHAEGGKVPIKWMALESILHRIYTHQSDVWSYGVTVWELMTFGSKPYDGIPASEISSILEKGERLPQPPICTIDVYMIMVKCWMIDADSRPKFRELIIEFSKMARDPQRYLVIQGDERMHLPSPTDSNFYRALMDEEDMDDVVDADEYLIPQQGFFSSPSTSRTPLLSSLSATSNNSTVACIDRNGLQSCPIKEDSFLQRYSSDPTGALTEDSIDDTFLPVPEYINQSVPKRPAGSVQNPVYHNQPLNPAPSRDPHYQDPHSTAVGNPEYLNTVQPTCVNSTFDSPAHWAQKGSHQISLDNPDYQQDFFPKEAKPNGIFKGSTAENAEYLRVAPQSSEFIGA

Row | Compound | IC50 (Ba/F3_EGFR WT cells) | IC50 (BaF3_EGFR LR/CS cells) | IC50 (BaF3_EGFR d19/CS cells) | IC50 [1] | IC50 [2]
1 | NC(=O)CCn1cc(-c2ncnc3oc(-c4ccccc4)cc23)c(-c2ccc(F)cc2)n1 [Example 118, 3-[3-(4-Fluorophenyl)-4-(6-phenylfuro[2,3-d]pyrimidin-4-yl)-1H-pyrazol-1-yl]propanamide] | 1020 nM | 38.3 nM | 50.5 nM | 0.25 nM | 0.56 nM
2 | Fc1ccc(-c2nn(CC(F)F)cc2-c2ncnc3oc(-c4ccccc4)cc23)cc1 [Example 119, 4-[1-(2,2-Difluoroethyl)-3-(4-fluorophenyl)-1H-pyrazol-4-yl]-6-phenylfuro[2,3-d]pyrimidine] | 1340 nM | 35.5 nM | 50.9 nM | 0.34 nM | 0.7 nM
